ChEMBL document CHEMBL1146163 (Bioorg Med Chem Lett, 2006)
Activity calls are given as the source filed them. The calls are words filed in the database; no cut-off is given here.

Assays:
[1] = system: Mus musculus; test: Reduction of glucose level in db/db mouse at 30 mg/kg, po after 7 days relative to control; assay type: functional; parameters: scale not given: the % may be the effect or the level left
[2] = target: T1, Peroxisome proliferator-activated receptor alpha (Homo sapiens, UniProt Q07869); test: (§1) Displacement of tritium labeled ligand from human PPARalpha by SPA assay
T1 sequence (Q07869 whole entry): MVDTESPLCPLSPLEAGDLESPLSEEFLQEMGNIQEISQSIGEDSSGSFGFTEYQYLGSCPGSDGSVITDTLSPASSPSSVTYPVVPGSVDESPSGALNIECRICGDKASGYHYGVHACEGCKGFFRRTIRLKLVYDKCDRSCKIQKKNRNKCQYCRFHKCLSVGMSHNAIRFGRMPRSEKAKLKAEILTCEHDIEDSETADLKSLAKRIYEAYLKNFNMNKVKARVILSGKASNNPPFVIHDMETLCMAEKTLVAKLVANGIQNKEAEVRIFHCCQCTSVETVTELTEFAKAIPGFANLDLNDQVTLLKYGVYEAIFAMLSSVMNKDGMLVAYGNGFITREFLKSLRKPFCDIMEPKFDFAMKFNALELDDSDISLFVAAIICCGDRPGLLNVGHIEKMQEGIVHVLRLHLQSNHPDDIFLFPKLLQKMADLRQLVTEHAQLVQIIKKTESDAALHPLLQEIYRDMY

[3] = target: T2, Peroxisome proliferator-activated receptor alpha (Homo sapiens) (UniProt Q07869); test: Activity at human PPARalpha expressed in CV1 cells using GAL4 chimeric system relative to control; assay type: cell-based; details: CV-1
T2 sequence (whole entry): T1 sequence (Q07869 whole entry)

[4] = target: T3, Peroxisome proliferator-activated receptor delta (Homo sapiens) (UniProt Q03181); test: Activity at human PPARdelta expressed in CV1 cells by cotransfection assay relative to control; assay type: cell-based; details: CV-1
T3 sequence (whole entry): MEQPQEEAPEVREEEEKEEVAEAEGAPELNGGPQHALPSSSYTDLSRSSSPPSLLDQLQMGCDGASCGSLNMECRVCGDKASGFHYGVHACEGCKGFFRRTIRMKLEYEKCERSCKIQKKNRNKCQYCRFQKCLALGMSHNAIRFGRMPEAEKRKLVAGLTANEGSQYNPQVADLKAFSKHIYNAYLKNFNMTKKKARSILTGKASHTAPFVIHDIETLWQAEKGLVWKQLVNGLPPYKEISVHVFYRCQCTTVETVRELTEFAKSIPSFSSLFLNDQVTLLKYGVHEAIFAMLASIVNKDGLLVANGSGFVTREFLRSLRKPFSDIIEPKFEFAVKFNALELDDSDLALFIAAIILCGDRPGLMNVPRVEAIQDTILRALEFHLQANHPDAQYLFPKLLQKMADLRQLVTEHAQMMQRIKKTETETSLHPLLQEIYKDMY

[5] = target: T4, Peroxisome proliferator-activated receptor gamma (Homo sapiens, UniProt P37231)
T4 sequence (P37231 whole entry): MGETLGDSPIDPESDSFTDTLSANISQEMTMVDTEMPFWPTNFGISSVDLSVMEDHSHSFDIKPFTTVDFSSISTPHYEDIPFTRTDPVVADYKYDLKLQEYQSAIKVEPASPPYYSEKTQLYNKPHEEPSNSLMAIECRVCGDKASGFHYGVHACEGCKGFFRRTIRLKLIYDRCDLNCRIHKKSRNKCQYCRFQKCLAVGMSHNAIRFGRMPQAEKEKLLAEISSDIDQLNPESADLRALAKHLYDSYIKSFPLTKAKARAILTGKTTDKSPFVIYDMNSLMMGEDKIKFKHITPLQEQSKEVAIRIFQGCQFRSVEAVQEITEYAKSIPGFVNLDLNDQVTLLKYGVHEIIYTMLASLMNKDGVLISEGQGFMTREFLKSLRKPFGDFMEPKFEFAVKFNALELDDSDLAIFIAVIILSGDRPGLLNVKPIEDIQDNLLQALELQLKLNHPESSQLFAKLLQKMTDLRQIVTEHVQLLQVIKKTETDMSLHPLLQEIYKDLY
Description: Displacement of tritium labeled ligand from human PPARgamma by SPA assay

[6] = target: T5, Peroxisome proliferator-activated receptor delta (Homo sapiens, UniProt Q03181); test: Activity at PPARdelta
T5 sequence (Q03181 whole entry): T3 sequence (whole entry)

[7] = target: T2, Peroxisome proliferator-activated receptor alpha (Homo sapiens); test: as §1
[8] = Half life in Beagle dog at 1 mg/kg, iv; assay type: ADME, organism-based, Canis lupus familiaris; parameters: dose 1 mg/kg, route intravenous; details: in vivo
[9] = Oral bioavailability in F344 rat at 10 mg/kg, po; assay type: ADME, organism-based; details: in vivo
[10] = Tmax in Beagle dog at 10 mg/kg, po; assay type: ADME, organism-based, Canis lupus familiaris; parameters: dose 10 mg/kg, route oral; details: in vivo
[11] = Volume of distribution in F344 rat at 1 mg/kg, iv; assay type: ADME, organism-based; parameters: dose 1 mg/kg, route intravenous; details: in vivo, read-out: Vdss
[12] = Half life in F344 rat at 1 mg/kg, iv; assay type: ADME, organism-based; parameters: dose 1 mg/kg, route intravenous; details: in vivo
[13] = system: Rattus norvegicus; test: Reduction of plasma triglyceride level in ZDF rat at 1 mg/kg, po after 7 days relative to control; assay type: functional; details: 168 h
[14] = Clearance in F344 rat at 1 mg/kg, iv; assay type: ADME, organism-based; parameters: dose 1 mg/kg, route intravenous; details: in vivo
[15] = system: Rattus norvegicus; test: Effect on glucose normalization in po dosed ZDF rat after 7 days; assay type: functional; details: 168 h, read-out: MED
[16] = Tmax in F344 rat at 10 mg/kg, po; assay type: ADME, organism-based; parameters: dose 10 mg/kg, route oral; details: in vivo
[17] = Oral bioavailability in Beagle dog at 10 mg/kg, po; assay type: ADME, organism-based, Canis lupus familiaris; details: in vivo
[18] = Volume of distribution in Beagle dog at 1 mg/kg, iv; assay type: ADME, organism-based, Canis lupus familiaris; parameters: dose 1 mg/kg, route intravenous; details: in vivo, read-out: Vdss
[19] = Clearance in Beagle dog at 1 mg/kg, iv; assay type: ADME, organism-based, Canis lupus familiaris; parameters: dose 1 mg/kg, route intravenous; details: in vivo
[20] = system: Rattus norvegicus; test: Reduction of glucose level in ZDF rat at 1 mg/kg, po after 7 days relative to control; assay type: functional; parameters: scale not given: the % may be the effect or the level left

| SMILES | Activity [1] | EC50 [2] | Efficacy [3] | EC50 [5] | IC50 [5] | other results |
| --- | --- | --- | --- | --- | --- | --- |
| C#CCOC(=O)N1CCc2c(OCCc3nc(-c4ccccc4)oc3C)ccc(CCC(=O)O)c2C1 | 37% | 2780 nM | 38% | 77 nM | 24 nM | IC50 [2]: 8400 nM; Efficacy [4]: 65%; EC50 [6]: 3020 nM |
| CCCOC(=O)N1CCc2c(OCCc3nc(-c4ccc(-c5ccccc5)cc4)oc3C)ccc(CCC(=O)O)c2C1 [listing 1 of 2 here] | – | 2390 nM | – | 3 nM | 21 nM | EC50 [6]: 2750 nM |
| Cc1oc(-c2ccc(-c3ccccc3)cc2)nc1CCOc1ccc(CCC(=O)O)c2c1CCN(C(=O)OCC(C)(C)C)C2 [listing 1 of 2 here] | – | – | 18% | – | – | Activity [7]: inactive; Efficacy [7]: < 20% |
| CCCOC(=O)N1CCc2c(OCCc3nc(-c4ccc(-c5ccccc5)cc4)oc3C)ccc(CCC(=O)[O-])c2C1.[Na+] | 41% | – | – | – | – | half-life [8]: 3.58 h; bioavailability [9]: 35%; Tmax [10]: 4 h; Vd [11]: 0.59 L/kg; half-life [12]: 5 h; ED50 [13]: 0.24 mg/kg; clearance [14]: 1.37 mL/min/kg; minimal effective dose [15]: 0.19 mg/kg; Tmax [16]: 1 h; bioavailability [17]: 37%; Vd [18]: 0.38 L/kg; clearance [19]: 1.24 mL/min/kg |
| Cc1oc(-c2ccc(-c3ccccc3)cc2)nc1CCOc1ccc(CCC(=O)O)c2c1CCN(C(=O)OCC(C)(C)C)C2 [listing 2 of 2 here] | – | – | – | 9 nM | 33 nM | – |
| Cc1oc(-c2ccc(-c3ccccc3)cc2)nc1CCOc1ccc(CCC(=O)[O-])c2c1CCN(C(=O)OCC(C)(C)C)C2.[Na+] | 49% | – | – | – | – | Activity [20]: 23% |
| CCCOC(=O)N1CCc2c(OCCc3nc(-c4ccccc4)oc3C)ccc(CCC(=O)O)c2C1 [listing 1 of 2 here] | 62% | 561 nM | – | 12 nM | 11 nM | IC50 [2]: 4680 nM |
| Cc1oc(-c2ccccc2)nc1CCOc1ccc(CCC(=O)O)c2c1CCN(C(=O)OCC(C)C)C2 | 27% | 1720 nM | 40% | 8 nM | 17 nM | IC50 [2]: 3420 nM; minimal effective dose [15]: 0.25 mg/kg |
| Cc1oc(-c2ccc(-c3ccccc3)cc2)nc1CCOc1ccc(CCC(=O)O)c(CNC(=O)OC(C)C)c1 | – | – | 52% | – | – | – |
| Cc1c(C)c2c(c(C)c1O)CCC(C)(COc1ccc(CC3SC(=O)NC3=O)cc1)O2 (stereo not drawn) | – | – | 0% | – | – | Activity [7]: inactive |
| CCCOC(=O)N1CCc2c(OCCc3nc(-c4ccccc4)oc3C)ccc(CCC(=O)O)c2C1 [listing 2 of 2 here] | – | – | 47% | – | – | – |
| Cc1oc(-c2ccccc2)nc1CCOc1ccc(C[C@H](Nc2ccccc2C(=O)c2ccccc2)C(=O)O)cc1 | – | – | 66% | – | – | – |
| CC(C)(Oc1ccc(C(=O)c2ccc(Cl)cc2)cc1)C(=O)O [FENOFIBRIC ACID] | – | > 10000 nM | 75% | – | – | IC50 [2]: > 10000 nM |
| CCCOC(=O)N1CCc2c(OCCc3nc(-c4ccccc4)oc3C)ccc(CCC(=O)[O-])c2C1.[Na+] | – | – | – | – | – | minimal effective dose [15]: 0.28 mg/kg |
| CN(CCOc1ccc(CC2SC(=O)NC2=O)cc1)c1ccccn1 (stereo not drawn) [ROSIGLITAZONE] | 29% | – | – | – | – | minimal effective dose [15]: 0.25 mg/kg |
| CCCOC(=O)N1CCc2c(OCCc3nc(-c4ccc(-c5ccccc5)cc4)oc3C)ccc(CCC(=O)O)c2C1 [listing 2 of 2 here] | – | – | 27% | – | – | Activity [7]: inactive; Efficacy [4]: 36% |
